Results taken from BigSolDB 2.1.

O=C(O)c1ccc(C(=O)O)o1
solubility (mole fraction)
Conditions	in 1,2-dimethoxyethane	in 1,4-dioxane	in THF	in diglyme
293.15 K	–	–	0.00772	–
298.15 K	–	–	0.00826	–
303.15 K	0.00344	0.00421	0.00884	0.00653
308.15 K	0.00372	0.00458	0.00939	0.00704
313.15 K	0.0039	0.00481	0.00998	0.00735
318.15 K	0.0041	0.00521	0.0108	0.00767
323.15 K	0.00432	0.00573	0.0116	0.00801
328.15 K	0.00458	0.00631	0.0122	0.00842
333.15 K	0.00487	0.00739	0.0128	0.00887
338.15 K	0.00528	0.00827	–	0.00937
343.15 K	0.00558	0.00886	–	0.00965
348.15 K	–	–	–	0.0103
353.15 K	–	–	–	0.0105
